Data from ChEMBL document CHEMBL4196027, “Structure-based discovery of cytotoxic dimeric tetrahydroxanthones as potential topoisomerase I inhibitors from a marine-derived fungus” (Eur J Med Chem, 2018).
Active and inactive are the calls of the source. The rule behind the calls is not given here.

Tests used:
[1] = system: HCT-116; test: Cytotoxicity against human HCT116 cells assessed as reduction in cell proliferation after 48 hrs by MTT assay; type: functional, cell-based
[2] = system: A549; test: Cytotoxicity against human A549 cells assessed as reduction in cell proliferation after 48 hrs by MTT assay; type: functional, cell-based
[3] = system: MGC-803; test: Cytotoxicity against human MGC803 cells assessed as reduction in cell proliferation after 48 hrs by MTT assay; type: functional, cell-based
[4] = system: K562; test: Cytotoxicity against human K562 cells assessed as reduction in cell proliferation after 48 hrs by MTT assay; type: functional, cell-based
[5] = system: HL-60; test: Cytotoxicity against human HL60 cells assessed as reduction in cell proliferation after 48 hrs by MTT assay; type: functional, cell-based
[6] = Cytotoxicity against human HO8910 cells assessed as reduction in cell proliferation after 48 hrs by MTT assay; type: functional, cell-based
[7] = system: NCI-H1975; test: Cytotoxicity against human NCI-H1975 cells assessed as reduction in cell proliferation after 48 hrs by MTT assay; type: functional, cell-based
[8] = system: HEK293; test: Cytotoxicity against HEK293 cells assessed as reduction in cell proliferation after 48 hrs by MTT assay; type: cell-based; settings: Homo sapiens, HEK293, 48 h
[9] = target: T1, Topoisomerase I (Bos taurus) (UniProt Q2HPH0); test: Inhibition of calf thymus DNA topoisomerase-1-mediated supercoiled pBR322 DNA relaxation assessed as stabilization of enzyme-DNA complex at 100 uM preincubated with enzyme followed by substrate addition measured after 30 mins by ethidium bromide staining based agarose gel electrophoresis method
T1 sequence (whole entry): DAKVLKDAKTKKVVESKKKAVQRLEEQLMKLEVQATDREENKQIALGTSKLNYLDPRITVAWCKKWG

[10] = target: T2, DNA topoisomerase 1 (Homo sapiens) (UniProt P11387); test: Inhibition of DNA topoisomerase-1 (unknown origin) up to 40 uM using supercoiled pBR322 DNA as substrate preincubated with enzyme followed by substrate addition measured after 30 mins by ethidium bromide staining based agarose gel electrophoresis method
T2 sequence (whole entry): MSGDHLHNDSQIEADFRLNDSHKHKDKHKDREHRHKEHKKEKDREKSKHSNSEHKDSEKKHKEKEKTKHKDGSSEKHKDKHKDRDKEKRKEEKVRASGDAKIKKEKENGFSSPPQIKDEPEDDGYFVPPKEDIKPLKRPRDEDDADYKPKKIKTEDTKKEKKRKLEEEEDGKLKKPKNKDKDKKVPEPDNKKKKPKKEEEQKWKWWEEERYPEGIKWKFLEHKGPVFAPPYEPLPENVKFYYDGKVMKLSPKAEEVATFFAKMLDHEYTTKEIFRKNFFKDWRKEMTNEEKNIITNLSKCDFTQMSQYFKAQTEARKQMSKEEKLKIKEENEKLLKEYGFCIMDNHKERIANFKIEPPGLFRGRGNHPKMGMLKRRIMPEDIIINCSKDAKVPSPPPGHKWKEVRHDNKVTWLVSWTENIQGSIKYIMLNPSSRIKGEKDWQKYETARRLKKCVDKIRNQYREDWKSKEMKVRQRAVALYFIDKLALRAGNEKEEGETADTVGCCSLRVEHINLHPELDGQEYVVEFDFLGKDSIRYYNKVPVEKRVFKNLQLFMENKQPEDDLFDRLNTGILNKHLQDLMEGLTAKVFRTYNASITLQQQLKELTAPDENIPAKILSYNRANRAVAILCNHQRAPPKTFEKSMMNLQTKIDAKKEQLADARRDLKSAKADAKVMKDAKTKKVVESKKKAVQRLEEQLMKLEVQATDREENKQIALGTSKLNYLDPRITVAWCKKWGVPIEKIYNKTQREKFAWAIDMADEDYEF

[11] = species on record: Homo sapiens; test: Inhibition of DNA topoisomerase-2 (unknown origin) at 100 uM using kinetoplast DNA as substrate measured after 30 mins by ethidium bromide staining based agarose gel electrophoresis method
[12] = target: T1, Topoisomerase I (Bos taurus); settings: 40 uM
Description: Inhibition of calf thymus DNA topoisomerase-1-mediated supercoiled pBR322 DNA relaxation assessed as stabilization of enzyme-DNA complex at 40 uM preincubated with enzyme followed by substrate addition measured after 30 mins by ethidium bromide staining based agarose gel electrophoresis method

[13] = system: DNA; test: Inhibition of ethidium bromide binding to Escherichia coli pBR322 DNA at 100 uM after 30 mins by fluorescence assay; type: nucleic-acid assay
[14] = system: MGC-803; test: Induction of cell membrane permeability in human MGC803 cells up to 50 uM up to 72 hrs by LDH release assay; type: functional, cell-based
[15] = system: MGC-803; test: Induction of necrosis in human MGC803 cells after 24 hrs by Annexin V-FITC/propidium iodide staining based flow cytometry; type: functional, cell-based
[16] = target: T2, DNA topoisomerase 1 (Homo sapiens); test: Inhibition of DNA topoisomerase-1 (unknown origin) at 10 uM using supercoiled pBR322 DNA as substrate preincubated for 15 mins followed by substrate addition measured after 30 mins by ethidium bromide staining based agarose gel electrophoresis method
[17] = system: MGC-803; test: Induction of apoptosis in human MGC803 cells assessed as change in procaspase-9 protein expression up to 25 uM after 24 hrs by Western blot analysis; type: functional, cell-based
[18] = system: MGC-803; test: Induction of apoptosis in human MGC803 cells assessed as change in PARP protein expression up to 25 uM after 24 hrs by Western blot analysis; type: functional, cell-based
[19] = system: DNA; test: Binding affinity to Escherichia coli pBR322 DNA assessed as hypochromicity by UV-Visible spectrum analysis; type: nucleic-acid assay
[20] = system: DNA; test: Binding affinity to Escherichia coli pBR322 DNA assessed as red shift by UV-Visible spectrum analysis; type: nucleic-acid assay
[21] = target: T2, DNA topoisomerase 1 (Homo sapiens); test: Inhibition of DNA topoisomerase-1 (unknown origin) using supercoiled pBR322 DNA as substrate preincubated with enzyme followed by substrate addition measured after 30 mins by ethidium bromide staining based agarose gel electrophoresis method
[22] = system: MGC-803; test: Induction of apoptosis in human MGC803 cells up to 25 uM after 48 hrs by Hoechst 33342/propidium iodide staining based flow cytometry; type: functional, cell-based
[23] = target: T2, DNA topoisomerase 1 (Homo sapiens); test: Inhibition of DNA topoisomerase-1 (unknown origin) at 10 uM using supercoiled pBR322 DNA as substrate preincubated for 1 to 30 mins followed by substrate addition by ethidium bromide staining based agarose gel electrophoresis method; settings: TDE = time-dependent effect
[24] = system: MGC-803; test: Cell cycle arrest in human MGC803 cells assessed as accumulation at G2/M phase after 24 hrs by propidium iodide staining based flow cytometry; type: functional

Row | SMILES | IC50 ([1]; Homo sapiens, HCT-116, 48 h) | IC50 ([2]; Homo sapiens, A549, 48 h) | IC50 ([3]; Homo sapiens, MGC-803, 48 h) | IC50 ([4]; Homo sapiens, K562, 48 h) | IC50 ([5]; Homo sapiens, HL-60, 48 h) | IC50 ([6]; Homo sapiens, HO-8910, 48 h) | IC50 ([7]; Homo sapiens, NCI-H1975, 48 h) | IC50 [8] | inhibition [9] | inhibition [11] | other results
1 | COC(=O)[C@@]12Oc3c(-c4ccc(O)c5c4O[C@]4(C(=O)OC)C(=C(O)C[C@H](C)[C@H]4O)C5=O)ccc(O)c3C(=O)C1=C(O)C[C@H](C)[C@H]2O | 0.5 µM | 11.7 µM | 0.9 µM | 0.4 µM | 0.9 µM | 1.4 µM | 3.5 µM |  |  |  | 
2 | COC(=O)[C@@]12Oc3ccc(-c4ccc(O)c5c4O[C@]4(C(=O)OC)C(=C(O)C[C@H](C)[C@H]4O)C5=O)c(O)c3C(=O)C1=C(O)C[C@H](C)[C@H]2O | 1.2 µM | 1.6 µM | 1.1 µM | 1.1 µM | 0.5 µM | 1.5 µM |  |  |  |  | 
3 | COC(=O)c1c(O)c(C)cc(O)c1C(=O)c1c(O)ccc(-c2ccc3c(c2O)C(=O)C2=C(O)C[C@H](C)[C@@H](O)[C@]2(C(=O)OC)O3)c1O | > 50 µM | > 50 µM |  | > 50 µM | 27.8 µM | > 50 µM | > 50 µM | > 50 µM |  |  | 
4 | COC(=O)[C@@]12Oc3ccc(-c4ccc(O)c5c4O[C@]4(C(=O)OC)C(=C(O)C[C@H](C)[C@H]4O)C5=O)c(O)c3C(=O)C1=C(O)C[C@H](CO)[C@H]2O | > 50 µM | > 50 µM |  | > 50 µM | 47.3 µM | > 50 µM | > 50 µM | > 50 µM |  |  | 
5 | COC(=O)[C@@]12Oc3c(-c4ccc5c(c4O)C(=O)C4=C(O)C[C@H](C)[C@@H](O)[C@]4(C(=O)OC)O5)ccc(O)c3C(=O)C1=C(O)C[C@H](CO)[C@H]2O | > 50 µM | > 50 µM | > 50 µM | > 50 µM | 49.5 µM | > 50 µM | 49.5 µM | > 50 µM | Active | inactive | inhibition [10]: Active
6 | CC[C@@]1(O)C(=O)OCc2c1cc1n(c2=O)Cc2cc3cc(O)ccc3nc2-1 |  |  |  |  |  |  |  |  |  |  | inhibition [12]: Active
7 | COc1cc(NS(C)(=O)=O)ccc1Nc1c2ccccc2nc2ccccc12 |  |  |  |  |  |  |  |  |  |  | inhibition [13]: Active
8 | COC(=O)[C@@]12Oc3cc(C)c(-c4ccc5c(c4O)C(=O)C4=C(O)C[C@H](C)[C@@H](O)[C@]4(C(=O)OC)O5)c(O)c3C(=O)C1=C(O)CC[C@H]2O (stereo in doubt; 1) |  |  |  |  |  |  |  |  | Active | inactive | Activity [14]: Active; Activity [15]: Dose-dependent effect; inhibition [16]: 100%; Activity [17]: inactive; Activity [18]: inactive; Activity [19]: inactive; Activity [20]: inactive; inhibition [21]: Dose-dependent effect; Activity [22]: inactive; inhibition [23]: Tde; Activity [24]: Dose-dependent effect; inhibition [13]: inactive
9 | COC(=O)[C@@]12Oc3cc(C)c(-c4ccc5c(c4O)C(=O)C4=C(O)C[C@H](C)[C@@H](O)[C@]4(C(=O)OC)O5)c(O)c3C(=O)C1=C(O)CC[C@H]2O (stereo in doubt; 2) [listing 1 of 2 here] |  |  |  |  |  |  |  |  |  |  | IC50 ([1]; hct-116): 15.2 µM; IC50 ([2]; a549): 19.2 µM; IC50 ([3]; mgc-803): 6.2 µM; IC50 ([4]; k562): 22.1 µM; IC50 ([5]; hl-60): 6.9 µM; IC50 [6]: 6.9 µM; IC50 ([7]; nci-h1975): 5.3 µM
10 | COC(=O)[C@@]12Oc3cc(C)c(-c4ccc5c(c4O)C(=O)C4=C(O)C[C@H](C)[C@@H](O)[C@]4(C(=O)OC)O5)c(O)c3C(=O)C1=C(O)CC[C@H]2O (stereo in doubt; 2) [listing 2 of 2 here] |  |  |  |  |  |  |  |  | Active | inactive | inhibition [10]: Active
